Consider nine molecules from paper PMC10698726 (Molecular Pharmaceutics, 2023).

One data set has as its target T1, OCT2 (Homo sapiens, UniProt O15244).
T1 sequence (O15244 1-555): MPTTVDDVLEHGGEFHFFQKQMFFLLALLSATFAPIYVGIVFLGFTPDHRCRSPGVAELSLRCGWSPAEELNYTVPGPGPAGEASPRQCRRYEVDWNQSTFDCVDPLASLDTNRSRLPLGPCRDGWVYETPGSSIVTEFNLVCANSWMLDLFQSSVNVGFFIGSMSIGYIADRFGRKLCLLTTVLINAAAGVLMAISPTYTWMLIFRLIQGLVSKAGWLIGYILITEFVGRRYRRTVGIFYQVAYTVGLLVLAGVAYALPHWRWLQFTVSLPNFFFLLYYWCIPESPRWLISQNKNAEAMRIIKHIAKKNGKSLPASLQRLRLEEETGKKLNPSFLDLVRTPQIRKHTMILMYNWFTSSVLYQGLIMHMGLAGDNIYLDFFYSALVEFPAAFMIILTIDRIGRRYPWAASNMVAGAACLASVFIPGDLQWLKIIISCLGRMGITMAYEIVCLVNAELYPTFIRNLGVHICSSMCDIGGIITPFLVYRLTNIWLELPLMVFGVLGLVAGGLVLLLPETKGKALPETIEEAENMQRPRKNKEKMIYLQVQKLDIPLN
The experiment in a line: Inhibition of model substrate uptake in OCT2-overexpressing HEK293 cells. Particulars: for ASP+ inhibition [%] / N-Ethyllidocaine inhibition [%] / inhibition at 5 min, 20 μM: 20 μM inhibitor.

In data set [1] the target is T2, OCT3 (Homo sapiens, UniProt O75751).
T2 construct: expressed in transfected cells; host or cells: HEK293
T2 sequence (O75751 1-556): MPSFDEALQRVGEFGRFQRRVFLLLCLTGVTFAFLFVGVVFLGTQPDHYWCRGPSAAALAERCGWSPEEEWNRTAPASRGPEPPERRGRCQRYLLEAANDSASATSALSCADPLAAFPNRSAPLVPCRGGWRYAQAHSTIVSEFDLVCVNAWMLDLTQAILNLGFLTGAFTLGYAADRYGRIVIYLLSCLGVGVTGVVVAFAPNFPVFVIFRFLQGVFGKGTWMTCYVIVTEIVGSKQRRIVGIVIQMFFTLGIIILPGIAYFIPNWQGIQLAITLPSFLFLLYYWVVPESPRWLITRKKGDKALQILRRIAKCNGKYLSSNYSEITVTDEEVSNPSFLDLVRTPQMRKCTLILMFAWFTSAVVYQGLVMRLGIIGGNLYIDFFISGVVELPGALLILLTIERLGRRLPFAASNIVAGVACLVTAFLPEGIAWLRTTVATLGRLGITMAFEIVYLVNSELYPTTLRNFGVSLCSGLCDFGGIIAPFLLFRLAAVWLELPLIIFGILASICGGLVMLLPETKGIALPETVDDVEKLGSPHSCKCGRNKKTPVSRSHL
Nature of the data set: Inhibition of model substrate uptake in OCT3-overexpressing HEK293 cells. It counts as cell-based. The settings on record: for stereoselective inhibition of OCT3 (in words): ethambutol and zolmitriptan as substrates; for pIC50: OCT3, Table S5, 2 μM ASP+ or ethambutol as model substrate, read-out: IC50. A digest of the protocol: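 Transporter-overexpressing HEK293 cells were incubated 5 min in HBSS+ with 2 μM model substrate, with or without 20 μM inhibitor or increasing inhibitor concentrations. Uptake was read as ASP^+ fluorescence or by LC–MS/MS, with empty-vector uptake subtracted. IC50 came from a Hill fit of activity versus log concentration.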

For a further data set, the target named is T3, OCT1 (Homo sapiens, UniProt O15245).
T3 sequence (O15245 1-554): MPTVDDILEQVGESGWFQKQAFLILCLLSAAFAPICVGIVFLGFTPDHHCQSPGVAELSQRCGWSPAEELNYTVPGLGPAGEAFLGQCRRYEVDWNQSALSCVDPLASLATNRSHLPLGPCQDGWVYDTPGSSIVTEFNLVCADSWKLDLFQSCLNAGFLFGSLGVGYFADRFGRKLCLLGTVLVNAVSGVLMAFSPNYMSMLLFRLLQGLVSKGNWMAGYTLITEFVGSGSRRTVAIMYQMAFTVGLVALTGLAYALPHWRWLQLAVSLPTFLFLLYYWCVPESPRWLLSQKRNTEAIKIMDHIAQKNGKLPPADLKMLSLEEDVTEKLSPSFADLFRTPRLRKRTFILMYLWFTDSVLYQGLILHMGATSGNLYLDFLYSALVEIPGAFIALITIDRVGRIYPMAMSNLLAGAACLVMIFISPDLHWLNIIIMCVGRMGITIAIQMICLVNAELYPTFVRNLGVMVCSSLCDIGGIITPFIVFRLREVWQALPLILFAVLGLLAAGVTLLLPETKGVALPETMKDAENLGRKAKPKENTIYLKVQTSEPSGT
The experiment in a line: Inhibition of model substrate uptake in OCT1-overexpressing HEK293 cells. It counts as cell-based. Also on record: expressed in transfected cells; host or cells: HEK293. The settings on record: for inhibition at 5 min, 20 μM / selectivity ratio at 5 min: OCT1-overexpressing HEK293 cells; for selectivity ratio at 5 min: pH 7.4, OCT1, read-out: x-fold Stereoselectivity. The procedure:
Koepsell and Gorbulev (University of Würzburg, Germany).
Fluorescence quantification was performed in technical duplicates.

For data set [2], the target named is T2, OCT3. Also on record: method as in earlier work. The settings on record: ref 3 (Gebauer et al., 2022, supplement), cited from earlier work.
Setting [3] is: OCT2, 2 μM N-ethyllidocaine, 5 min.
Setting [4] is: OCT3, 20 μM inhibitor, 2 μM ASP+, 5 min.
The mark [5] stands for this setting: human, OCT2-overexpressing HEK293 cells, pH 7.4, probe (S,S)-ethambutol (2 μM), (S,S)-Ethambutol inhibition [%], OCT2, 2 μM (S,S)-ethambutol, 5 min.
[6] abbreviates: human, OCT2-overexpressing HEK293 cells, pH 7.4, probe ASP+ (2 μM), ASP+ inhibition [%], OCT2, 2 μM ASP+, 5 min.
Setting [7] is: human, OCT2-overexpressing HEK293 cells, pH 7.4, probe N-ethyllidocaine (2 μM), N-Ethyllidocaine inhibition [%], OCT2, 2 μM N-ethyllidocaine, 5 min.
[8] abbreviates: HEK293, 5 min, read-out: (S)-Zolmitriptan inhibition [%], OCT3, 20 μM inhibitor, 2 μM (S)-zolmitriptan, 5 min.
Setting [9] is: HEK293, 5 min, read-out: (S,S)-Ethambutol inhibition [%], OCT3, 20 μM inhibitor, 2 μM (S,S)-ethambutol, 5 min.
Setting [10] is: HEK293, OCT3, 20 μM inhibitor, 2 μM ASP+, 5 min, read-out: ASP+ inhibition [%].
Setting [11] is: human, pH 7.4, probe (S,S)-ethambutol (2 μM), (S,S)-Ethambutol inhibition [%], OCT1, 20 μM inhibitor, 2 μM (S,S)-ethambutol, 5 min.
Where [12] appears, read: human, pH 7.4, probe ASP+ (2 μM), OCT1, 20 μM inhibitor, 2 μM ASP+, 5 min, mean of three experiments, read-out: ASP+ inhibition [%].
Where [13] appears, read: human, pH 7.4, probe sumatriptan (2 μM), OCT1, 20 μM inhibitor, 2 μM sumatriptan, 5 min, read-out: Sumatriptan inhibition [%].
Setting [14] is: human, ratio of the IC50 values of the two enantiomers of the drug.

pIC50: −log10 of the molar value. Like-named read-outs stand apart in the source and are kept apart here.

With `CC(C)C[C@H](N(C)C)C1(c2ccc(Cl)cc2)CCC1` [(S)-Sibutramine], the “ASP+ inhibition [%]” value on OCT2 (OCT2, 2 μM ASP+, 5 min) is 83.9%; on OCT3 [1] (setting [4]), -0.8%; at OCT1 (OCT1, 20 μM inhibitor, 2 μM ASP+, 5 min, mean of three experiments) it was 38.0%. Besides, the “N-Ethyllidocaine inhibition [%]” value at OCT2 (setting [3]) is 44.0%. Also, the “(S)-Zolmitriptan inhibition [%]” value at OCT3 [1] is reported as 24.1. For the same molecule, the “(S,S)-Ethambutol inhibition [%]” value at OCT3 [1] is 23.8. In addition, at OCT1 (human, pH 7.4), the “Sumatriptan inhibition [%]” value was 72.0%.

The pIC50 is the negative decadic logarithm of the IC50, by convention in mol/L. What is called inhibition is the change of the read-out against control, counted positive when it falls. Take `CC(C)(C)NC[C@H](O)COc1nsnc1N1CCOCC1` [(S)-Timolol]: at OCT2 (IC50, OCT2, Table S5, 2 μM ASP+ as model substrate, 5 min), the pIC50 was 4.22. The inhibition at 5 min, 20 μM on OCT2 (setting [5]) was found to be 14.4%; against OCT2 (setting [6]), 50.1%; on OCT2 (setting [7]), 25.1%; against OCT1 (setting [11]) it was 25.6%; at OCT1 (setting [12]), 3.9%; on OCT1 (setting [13]), 42.1%. Moreover, the inhibition at 20 µM is 16.8% on OCT3 [1] (setting [8]), 11.1% at OCT3 [1] (setting [9]) and 27.8% at OCT3 [1] (setting [10]).

`COc1ccc([C@@H](CN(C)C)C2(O)CCCCC2)cc1` [(S)-Venlafaxine]: the “ASP+ inhibition [%]” value at OCT2 (OCT2, 2 μM ASP+, 5 min) is 21.8%. Besides, at OCT2 (setting [3]), the “N-Ethyllidocaine inhibition [%]” value stood at 13.4%. The inhibition at 20 µM on OCT3 [1] (HEK293, 5 min, read-out: (S)-Zolmitriptan inhibition [%]) is 21%; on OCT3 [1] (HEK293, 5 min, read-out: (S,S)-Ethambutol inhibition [%]), 4.6%; on OCT3 [1] (setting [10]), -11.4%. In addition, the “Sumatriptan inhibition [%]” value at OCT1 (human, pH 7.4) stood at 66.9%.

In the case of `CCCCN1CCCCC1C(=O)Nc1c(C)cccc1C` (stereo not shown) [Bupivacaine], the selectivity ratio at 5 min at OCT2 (human, OCT2-overexpressing HEK293 cells, pH 7.4) was 2.3; at OCT1 (setting [14]), 1.8. Besides, the “stereoselective inhibition of OCT3 (in words)” value at OCT3 [1] (20 μM inhibitor) is given as “stereoselective inhibition”. Also, the “x-fold Stereoselectivity” value at OCT1 (OCT1, ratio of the IC50 values of the two enantiomers of the drug) was determined as 1.2 fold.

In general, Km refers to the concentration of substrate that gives half-maximal velocity. On to `NC(N)=Nc1nc(CSCCC(N)=NS(N)(=O)=O)cs1` [Famotidine], for which the Km on OCT3 [2] (read-out: Km ± SEM) is 8.91 µM. In addition, on OCT3 [2], the “Clint ± SEM” value was 27.2 and the “vmax ± SEM [pmol × mg Protein−1 × min−1]” value is 242 pmol × mg Protein−1 × min−1.

Regarding `CCN(CC)CC#CCOC(=O)C(O)(c1ccccc1)C1CCCCC1` (stereo not shown) [Oxybutynine], the “x-fold Stereoselectivity” value on OCT2 (OCT2, ratio of the IC50 values of the two enantiomers of the drug) was found to be 1.6 fold; on OCT3 [1] (OCT3, ratio of the IC50 values of the two enantiomers of the drug) it was 1.6 fold. Moreover, the “stereoselective inhibition of OCT3 (in words)” value on OCT3 [1] (20 μM inhibitor) is listed as “stereoselective inhibition”. The selectivity ratio at 5 min at OCT1 (setting [14]) was found to be 1.2.

`C=C[C@H]1C[N@@]2CC[C@H]1C[C@@H]2[C@@H](O)c1ccnc2ccc(OC)cc12` [Quinidine]: the inhibition at 5 min, 20 μM at OCT2 (setting [5]) was 13.3%; on OCT2 (setting [6]) it was 93.4%; at OCT2 (setting [7]), 50.8%; against OCT1 (setting [11]) it was 61.7%; at OCT1 (setting [12]), 13.1%; on OCT1 (setting [13]), 41.3%. Further, the results for the inhibition at 20 µM on OCT3 [1] (setting [8]), at OCT3 [1] (setting [9]) and at OCT3 [1] (setting [10]) were 67%, 85.9% and 38.9%, respectively. Besides, the pIC50 at OCT3 [1] (5 min) was 3.60.

As to `C=C[C@H]1C[N@@]2CC[C@H]1C[C@H]2[C@H](O)c1ccnc2ccc(OC)cc12` [Quinine], the inhibition at 5 min, 20 μM was 13.4% against OCT2 (setting [5]); 76.9% against OCT2 (setting [6]); 33.7% on OCT2 (setting [7]); 54.8% against OCT1 (setting [11]); 15.5% on OCT1 (setting [12]); 38.2% on OCT1 (setting [13]). In addition, the inhibition at 20 µM at OCT3 [1] (setting [8]) worked out at 32.1%; on OCT3 [1] (setting [9]), 46.2%; on OCT3 [1] (setting [10]), 10.3%. On OCT3 [1] (5 min), the pIC50 was 4.10.

Consider (+)-Sparteine, for which the “ASP+ inhibition [%]” value stood at 112.4% on OCT2 (OCT2, 2 μM ASP+, 5 min) and 5.2% on OCT3 [1] (setting [4]). Moreover, the “N-Ethyllidocaine inhibition [%]” value on OCT2 (setting [3]) came to 99.9%. In addition, the “(S)-Zolmitriptan inhibition [%]” value on OCT3 [1] (OCT3, 20 μM inhibitor, 2 μM (S)-zolmitriptan, 5 min) was 28.7%. The “(S,S)-Ethambutol inhibition [%]” value on OCT3 [1] (OCT3, 20 μM inhibitor, 2 μM (S,S)-ethambutol, 5 min) was determined as 32.7%; at OCT1 (OCT1, 20 μM inhibitor, 2 μM (S,S)-ethambutol, 5 min), 83.5%. Also, the “Sumatriptan inhibition [%]” value on OCT1 (OCT1, 20 μM inhibitor, 2 μM sumatriptan, 5 min) stood at 81.6%.
